Reference: patent US12636810B2, “Wood preservative composition comprising 4,5-dichloro-2-octylisothiazol-3(2H)-one, a method treating a wood substrate therewith, and a wood product produced therefrom” (KOPPERS PERFORMANCE CHEMICALS, INC., priority 2021, dated 2026)

Assay: Organic solvent solvency with DCOI and retaining additive testing
Type: physicochemical
Design: key: Low: low solvency; Medium: medium solvency; High: high solvency
Details: 23.5% DCOI and 25.0% Chempol 801-2164 in the solvent; 40 degrees Fahrenheit; separation, precipitation, turbidity
Procedure: For testing the solvency (i.e., ability to dissolve) of the organic solvent for DCOI and the retaining additive, 4.7 gram of DCOI and 5.0 g of retaining additive were dissolved in 10.3 gram of organic solvent to make a 23.5% of DCOI and 25.0% resin solution in a clear 20 ml glass vial. Thereafter, the vial is stored at a selected temperature (i.e., ambient temperature, 40 degrees Fahrenheit, or 120 degree Fahrenheit or whenever a crosslinking may occur). The vial is monitored for up to 7 days for phase separation, precipitation, and turbidity, which may indicate incompatibility between the organic solvent and the retaining additive and/or DCOI. The as prepared solution is maintained at room temperature and 40 degrees Fahrenheit for up to 7 days or whenever a phase separation, precipitation or solution turbidity event happens to disqualify the solution.
The solvents were tested at 40 degrees Fahrenheit and rated low solvency, medium solvency, or high solvency based on the amount, if any, of separation, precipitation, and turbidity observed in each solution.

Structure (SMILES): OCc1ccccc1 [Benzyl Alcohol]
- DCOI/Resin Solvency: High
